According to ChEMBL document CHEMBL5244273, “Tuberculosis: An Overview of the Immunogenic Response, Disease Progression, and Medicinal Chemistry Efforts in the Last Decade toward the Development of Potential Drugs for Extensively Drug-Resistant Tuberculosis Strains” (J Med Chem, 2021):
Converted amounts (≈) assume the structure as drawn.

What was measured:
[1] = tested on: Mycobacterium tuberculosis; assay: Antitubercular activity against Mycobacterium tuberculosis H37Rv assessed as inhibition of bacterial growth by alamar blue assay; assay type: functional
[2] = tested on: Mycobacterium tuberculosis; assay: Antimycobacterial activity against Mycobacterium tuberculosis H37Rv incubated for 2 weeks; assay type: functional; conditions: 336 h
[3] = tested on: Mycobacterium tuberculosis; assay: Antimycobacterial activity against Mycobacterium tuberculosis H37Rv incubated for 3 weeks; assay type: functional; conditions: 504 h
[4] = tested on: Mycobacterium tuberculosis; assay: Antimycobacterial activity against Mycobacterium tuberculosis H37Rv incubated for 4 weeks; assay type: functional; conditions: 672 h
[5] = tested on: Mycobacterium tuberculosis; assay: Antimycobacterial activity against Mycobacterium tuberculosis H37Rv incubated for 5 weeks; assay type: functional; conditions: 840 h
[6] = tested on: Mycobacterium tuberculosis; assay: Antimycobacterial activity against non replicating Mycobacterium tuberculosis by broth dilution method; assay type: functional
[7] = tested on: Mycobacterium tuberculosis; assay: Antimycobacterial activity against Mycobacterium tuberculosis H37Rv ATCC 27294 by broth dilution method; assay type: functional
J774 = assay: Cytotoxicity against mouse J774 cells incubated for 24 hrs by MTT assay; assay type: toxicity, cell-based; conditions: j774, 24 h
[8] = tested on: Mycobacterium tuberculosis; assay: Antimycobacterial activity against Mycobacterium tuberculosis H37Rv assessed as inhibition of bacterial growth incubated for 5 days by alamar blue assay; assay type: functional; conditions: 120 h, time 5 day
[9] = tested on: Mycobacterium tuberculosis; assay: Antimycobacterial activity against Mycobacterium tuberculosis H37Rv; assay type: functional

SMILES	MIC [1] [mg/L]	MIC [2] [mg/L]	MIC [3] [mg/L]	MIC [4] [mg/L]	MIC [5] [mg/L]	other results
O=C(NNC(=O)c1ccc([N+](=O)[O-])cc1)c1ccncc1	25 (≈ 87.3 µM)	–	–	–	–	–
Cc1ccccc1C(=O)NNC(=O)c1ccncc1	25 (≈ 97.9 µM)	–	–	–	–	–
O=C(NNS(=O)(=O)c1ccccc1)c1ccncc1	50 (≈ 180 µM)	–	–	–	–	–
Cc1ccc(S(=O)(=O)NNC(=O)c2ccncc2)cc1	25 (≈ 85.8 µM)	–	–	–	–	–
O=C(Cc1ccccc1F)NNC(=O)c1ccncc1	6.25 (≈ 22.9 µM)	–	–	–	–	–
O=C(NNC(=O)c1ccc(Cl)c(Cl)c1)c1ccncc1	12.5 (≈ 40.3 µM)	–	–	–	–	–
O=C(NNC(=O)c1ccc(Cl)cc1)c1ccncc1	25 (≈ 90.7 µM)	–	–	–	–	–
O=C(NNC(=O)c1ccncc1)c1ccncc1	12.5 (≈ 51.6 µM)	–	–	–	–	–
CCCCCCCCCCCCCCCCCC(=O)NNC(=O)c1ccncc1	50 (≈ 124 µM)	–	–	–	–	–
COc1ccc(/C=C/C(=O)NNC(=O)c2ccncc2)cc1	12.5 (≈ 42 µM)	–	–	–	–	–
O=C(/C=C/c1ccccc1)NNC(=O)c1ccncc1	50 (≈ 187 µM)	–	–	–	–	–
CC(C)(C)n1cc(C(=O)O)c(=O)c2cc(F)c(-c3ccc(F)cc3F)cc21	–	4 (≈ 10.7 µM)	8 (≈ 21.3 µM)	8 (≈ 21.3 µM)	8 (≈ 21.3 µM)	–
CC(C)(C)n1cc(C(=O)O)c(=O)c2cc(F)c(Sc3ccccc3)cc21	–	8 (≈ 21.5 µM)	16 (≈ 43.1 µM)	16 (≈ 43.1 µM)	16 (≈ 43.1 µM)	–
COc1ccc(-c2cc3c(cc2F)c(=O)c(C(=O)O)cn3C(C)(C)C)cc1	–	0.5 (≈ 1.35 µM)	1 (≈ 2.71 µM)	1 (≈ 2.71 µM)	2 (≈ 5.41 µM)	–
CC(C)(C)n1cc(C(=O)O)c(=O)c2cc(F)c(-c3cccnc3)cc21	–	0.25 (≈ 0.735 µM)	0.25 (≈ 0.735 µM)	0.25 (≈ 0.735 µM)	0.25 (≈ 0.735 µM)	–
CC(C)(C)n1cc(C(=O)O)c(=O)c2cc(F)c(C#Cc3ccccc3)cc21	–	> 16	> 16	> 16	> 16	–
CC(C)(C)n1cc(C(=O)O)c(=O)c2cc(F)c(-c3ccc(O)cc3)cc21	–	0.25 (≈ 0.704 µM)	0.25 (≈ 0.704 µM)	0.25 (≈ 0.704 µM)	0.25 (≈ 0.704 µM)	–
Cc1cc(-c2cn(C[C@@]3(C)Cn4cc([N+](=O)[O-])nc4O3)nn2)ccc1F	–	–	–	–	–	MIC [6]: 4 mg/L (≈ 11.2 µM); MIC [7]: 2 mg/L (≈ 5.58 µM); Activity (J774): > 40 µg/mL
Cc1cc(O)n2nc(Nc3cccc(C)c3C)c(C(=O)Nc3cccc(Cl)c3)c2n1	–	–	–	–	–	MIC [8]: 50 mg/L (≈ 119 µM)
CC(C)(C)n1cc(C(=O)O)c(=O)c2cc(F)c(-c3ccc(Cl)cc3)cc21	–	1 (≈ 2.68 µM)	1 (≈ 2.68 µM)	1 (≈ 2.68 µM)	1 (≈ 2.68 µM)	–

SMILES	MIC [1] [mg/L]	MIC [2] [mg/L]	MIC [3] [mg/L]	MIC [4] [mg/L]	MIC [5] [mg/L]	other results
O=C(NNC(=O)c1cc(O)ccc1O)c1ccncc1	50 (≈ 183 µM)	–	–	–	–	–
COc1ccc(-c2cc3c(cc2F)c(=O)c(C(=O)O)cn3C(C)(C)C)cn1	–	0.25 (≈ 0.675 µM)	0.25 (≈ 0.675 µM)	0.5 (≈ 1.35 µM)	0.5 (≈ 1.35 µM)	–
C=CC(=O)NNC(=O)c1ccncc1	50 (≈ 262 µM)	–	–	–	–	–
Cc1ccc(OCCc2cn(C[C@@]3(C)Cn4cc([N+](=O)[O-])nc4O3)nn2)cc1	–	–	–	–	–	MIC [9]: 0.25 mg/L (≈ 0.65 µM); MIC [7]: 0.25 mg/L (≈ 0.65 µM); Activity (J774): > 40 µg/mL
C[C@]1(Cn2cc(-c3ccc(C(F)(F)F)cc3)nn2)Cn2cc([N+](=O)[O-])nc2O1	–	–	–	–	–	MIC [6]: 8 mg/L (≈ 20.3 µM); MIC [7]: 2 mg/L (≈ 5.07 µM); Activity (J774): > 40 µg/mL
CC(C)(C)CCn1cc(C(=O)O)c(=O)c2cc(F)c(-c3ccccc3)cc21	–	4 (≈ 10.9 µM)	8 (≈ 21.8 µM)	8 (≈ 21.8 µM)	8 (≈ 21.8 µM)	–
Cc1cccc(C(=O)NNC(=O)c2ccncc2)c1	12.5 (≈ 49 µM)	–	–	–	–	–
O=C(NNC(=O)c1ccco1)c1ccncc1	12.5 (≈ 54.1 µM)	–	–	–	–	–
C[C@]1(Cn2cc(-c3ccc(F)cc3)nn2)Cn2cc([N+](=O)[O-])nc2O1	–	–	–	–	–	MIC [6]: 2 mg/L (≈ 5.81 µM); MIC [7]: 1 mg/L (≈ 2.9 µM); Activity (J774): > 40 µg/mL
O=C(/C=C/c1ccc(Cl)cc1)NNC(=O)c1ccncc1	12.5 (≈ 41.4 µM)	–	–	–	–	–
COc1ccc(C(=O)NNC(=O)c2ccncc2)cc1OC	50 (≈ 166 µM)	–	–	–	–	–
CC(C)(C)n1cc(C(=O)O)c(=O)c2cc(F)c(-c3ccccc3)cc21	–	1 (≈ 2.95 µM)	2 (≈ 5.89 µM)	2 (≈ 5.89 µM)	2 (≈ 5.89 µM)	–
CC(Br)C(=O)NNC(=O)c1ccncc1 (stereo not given)	50 (≈ 184 µM)	–	–	–	–	–
C[C@]1(Cn2cc(-c3ccc(F)cc3F)nn2)Cn2cc([N+](=O)[O-])nc2O1	–	–	–	–	–	MIC [6]: 8 mg/L (≈ 22.1 µM); MIC [7]: 1 mg/L (≈ 2.76 µM); Activity (J774): > 40 µg/mL
O=C(Cc1cccc(Br)c1)NNC(=O)c1ccncc1	25 (≈ 74.8 µM)	–	–	–	–	–
Nc1ccc(O)c(C(=O)NNC(=O)c2ccncc2)c1	50 (≈ 184 µM)	–	–	–	–	–
O=C(NNC(=O)C1CCNC(Br)C1)c1ccncc1 (stereo not given)	25 (≈ 76.4 µM)	–	–	–	–	–
C[C@]1(Cn2cc(-c3ccc(OC(F)(F)F)cc3)nn2)Cn2cc([N+](=O)[O-])nc2O1	–	–	–	–	–	MIC [6]: 4 mg/L (≈ 9.75 µM); MIC [7]: 2 mg/L (≈ 4.87 µM); Activity (J774): > 40 µg/mL
C[C@]1(Cn2cc(COc3cccc(Cl)c3)nn2)Cn2cc([N+](=O)[O-])nc2O1	–	–	–	–	–	MIC [6]: 1 mg/L (≈ 2.56 µM); MIC [7]: 0.5 mg/L (≈ 1.28 µM); Activity (J774): > 40 µg/mL
O=C(/C=C/c1ccco1)NNC(=O)c1ccncc1	12.5 (≈ 48.6 µM)	–	–	–	–	–

SMILES	MIC [1] [mg/L]	MIC [2] [mg/L]	MIC [3] [mg/L]	MIC [4] [mg/L]	MIC [5] [mg/L]	other results
C[C@]1(Cn2cc(-c3ccc(Oc4ccccc4)cc3)nn2)Cn2cc([N+](=O)[O-])nc2O1	–	–	–	–	–	MIC [6]: 2 mg/L (≈ 4.78 µM); MIC [7]: 2 mg/L (≈ 4.78 µM); Activity (J774): > 40 µg/mL
O=C(Cc1ccccc1Br)NNC(=O)c1ccncc1	25 (≈ 74.8 µM)	–	–	–	–	–
CC(C)(C)n1cc(C(=O)O)c(=O)c2cc(F)c(-c3cccc(Cl)c3)cc21	–	2 (≈ 5.35 µM)	2 (≈ 5.35 µM)	2 (≈ 5.35 µM)	4 (≈ 10.7 µM)	–
CC(C)c1ccc(-c2cc3c(cc2F)c(=O)c(C(=O)O)cn3C(C)(C)C)cc1	–	2 (≈ 5.24 µM)	4 (≈ 10.5 µM)	4 (≈ 10.5 µM)	4 (≈ 10.5 µM)	–
C[C@]1(Cn2cc(COc3ccc(OC(F)(F)F)cc3)nn2)Cn2cc([N+](=O)[O-])nc2O1	–	–	–	–	–	MIC [6]: 4 mg/L (≈ 9.08 µM); MIC [7]: 2 mg/L (≈ 4.54 µM); Activity (J774): > 40 µg/mL
C[C@]1(Cn2cc(COc3ccc(C(F)(F)F)cc3)nn2)Cn2cc([N+](=O)[O-])nc2O1	–	–	–	–	–	MIC [6]: 2 mg/L (≈ 4.71 µM); MIC [7]: 1 mg/L (≈ 2.36 µM); Activity (J774): > 40 µg/mL
CCCCCc1cn(C[C@@]2(C)Cn3cc([N+](=O)[O-])nc3O2)nn1	–	–	–	–	–	MIC [6]: 4 mg/L (≈ 12.5 µM); MIC [7]: 2 mg/L (≈ 6.24 µM); Activity (J774): > 40 µg/mL
CC(C)(C)n1cc(C(=O)O)c(=O)c2cc(F)c(-c3ccccc3Cl)cc21	–	8 (≈ 21.4 µM)	8 (≈ 21.4 µM)	8 (≈ 21.4 µM)	8 (≈ 21.4 µM)	–
CC(C)(C)n1cc(C(=O)O)c(=O)c2cc(F)c(-c3ccc(-c4ccccc4)cc3)cc21	–	4 (≈ 9.63 µM)	4 (≈ 9.63 µM)	4 (≈ 9.63 µM)	4 (≈ 9.63 µM)	–
Cc1ccccc1-c1cc2c(cc1F)c(=O)c(C(=O)O)cn2C(C)(C)C	–	8 (≈ 22.6 µM)	8 (≈ 22.6 µM)	8 (≈ 22.6 µM)	16 (≈ 45.3 µM)	–
O=C(COc1ccccc1)NNC(=O)c1ccncc1	25 (≈ 92.2 µM)	–	–	–	–	–
Cc1ccc(-c2cc3c(cc2F)c(=O)c(C(=O)O)cn3C(C)(C)C)cc1	–	1 (≈ 2.83 µM)	1 (≈ 2.83 µM)	1 (≈ 2.83 µM)	1 (≈ 2.83 µM)	–
O=C(Cc1ccccc1Cl)NNC(=O)c1ccncc1	25 (≈ 86.3 µM)	–	–	–	–	–
CC(C)(C)OC(=O)Nc1ccc(-c2cc3c(cc2F)c(=O)c(C(=O)O)cn3C(C)(C)C)cc1	–	4 (≈ 8.8 µM)	4 (≈ 8.8 µM)	4 (≈ 8.8 µM)	4 (≈ 8.8 µM)	–
COc1cccc(-c2cc3c(cc2F)c(=O)c(C(=O)O)cn3C(C)(C)C)c1	–	1 (≈ 2.71 µM)	1 (≈ 2.71 µM)	1 (≈ 2.71 µM)	1 (≈ 2.71 µM)	–
CC(C)(C)n1cc(C(=O)O)c(=O)c2cc(F)c(Oc3ccccc3)cc21	–	8 (≈ 22.5 µM)	16 (≈ 45 µM)	16 (≈ 45 µM)	16 (≈ 45 µM)	–
CCC(C)(C)n1cc(C(=O)O)c(=O)c2cc(F)c(-c3ccccc3)cc21	–	8 (≈ 22.6 µM)	16 (≈ 45.3 µM)	16 (≈ 45.3 µM)	16 (≈ 45.3 µM)	–
COc1ccc(-c2cc3c(cc2F)c(=O)c(C(=O)O)cn3C2CC2)cn1	–	0.5 (≈ 1.41 µM)	0.5 (≈ 1.41 µM)	0.5 (≈ 1.41 µM)	0.5 (≈ 1.41 µM)	–
O=C(O)c1cn(C2CC2)c2cc(N3CCNCC3)c(F)cc2c1=O [CIPROFLOXACIN]	3.12 (≈ 9.43 µM)	0.25 (≈ 0.754 µM)	0.25 (≈ 0.754 µM)	0.25 (≈ 0.754 µM)	0.25 (≈ 0.754 µM)	MIC [9]: 3.12 mg/L (≈ 9.42 µM); MIC [8]: 3.12 mg/L (≈ 9.42 µM)
